Results as given in patent publication US7718703B2, “Norvaline derivative and method for preparation thereof” (Mitsubishi Tanabe Pharma Corporation, priority 2006, dated 2010).

Key:
human GlyT2 = target: T1, human GlyT2 (Homo sapiens, UniProt Q9Y345); test: Glycine uptake assay (GlyT2 assay); type: cell-based; conditions: HEK 293 cells stably transfected with human GlyT2; 14C-glycine 10 μM; room temperature 2-3 hours
T1 construct: expressed in transfected cells
T1 sequence (Q9Y345 1-797): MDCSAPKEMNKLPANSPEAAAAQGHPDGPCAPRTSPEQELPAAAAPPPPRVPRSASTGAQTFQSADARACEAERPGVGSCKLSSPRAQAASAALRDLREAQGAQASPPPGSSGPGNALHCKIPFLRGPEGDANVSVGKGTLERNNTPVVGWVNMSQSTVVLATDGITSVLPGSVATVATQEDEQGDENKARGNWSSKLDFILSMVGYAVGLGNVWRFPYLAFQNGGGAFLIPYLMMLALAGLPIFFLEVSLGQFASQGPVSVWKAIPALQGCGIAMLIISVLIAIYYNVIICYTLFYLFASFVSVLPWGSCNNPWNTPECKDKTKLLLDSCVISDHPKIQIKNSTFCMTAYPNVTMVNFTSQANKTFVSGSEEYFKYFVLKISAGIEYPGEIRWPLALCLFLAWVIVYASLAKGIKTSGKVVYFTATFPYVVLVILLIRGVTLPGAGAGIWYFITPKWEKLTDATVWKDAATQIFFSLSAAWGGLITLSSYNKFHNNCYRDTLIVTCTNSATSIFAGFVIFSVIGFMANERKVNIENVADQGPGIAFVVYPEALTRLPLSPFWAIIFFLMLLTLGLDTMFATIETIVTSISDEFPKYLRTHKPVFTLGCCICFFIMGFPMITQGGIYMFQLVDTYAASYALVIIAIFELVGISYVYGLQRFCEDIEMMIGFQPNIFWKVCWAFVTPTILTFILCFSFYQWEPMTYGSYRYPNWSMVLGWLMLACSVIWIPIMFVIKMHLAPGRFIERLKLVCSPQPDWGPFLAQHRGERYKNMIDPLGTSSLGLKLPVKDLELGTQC
Procedure: Experiment 1 Glycine uptake assay (GlyT2 and GlyT1 assay)
Inhibitory activity on GlyT2 and GlyT1 was examined by glycine uptake assays using cells expressing GlyT2 or GlyT1, as described in the literatures, Caulfield et al. (J. Med. Chem., 2001, 44, 2679-2682), Williams et al. (Anal. Biochem., 2003, 321, 31-37, etc.), and/or Morrow et al. (FEBS Letters, 1998, 439: 334-340).
Briefly, the assays were performed as follows.
HEK 293 cells stably transfected with either human GlyT2 or human GlyT1b were used. The cells were grown in 96-well Cytostar-T™ scintillating microplates (20,000-40,000 cells/well) overnight before removal of culture medium and addition of HEPES buffered saline containing glycine (10 μM) labeled with ^14C and varying concentrations of test compounds.
Plates were incubated at room temperature for 2-3 hours, and then, the plates were counted in a plate counter.
Data were analyzed by the sigmoid dose-response curve fitting to produce IC50 (the concentration of test compound producing 50% inhibition) values.

Row | melting point | IC50 (human GlyT2) | SMILES
1 | 103 to 104 °C |  | CCCCCCOc1ccc(C(=O)N[C@@H](CCC)C(=O)NCCN(C)C)cc1 [Example 1.001, N-[(1S)-1-[[[2-(dimethylamino)ethyl]amino]carbonyl]butyl]-4-(hexyloxy)benzamide]
2 |  | < 10 nM | CCC[C@H](NC(=O)c1cc(OC)c(OCc2ccccc2)c(OC)c1)C(=O)NCC1(N(C)C)CCCC1 [Example 1.026]
